According to patent US12053477B2, “Methods for treating pulmonary fibrosis” (Reviva Pharmaceuticals, Inc., priority 2017, dated 2024):

Assays:
Human recombinant 5-HT1A = Human recombinant 5-HT1A (Homo sapiens (Human), UniProt P08908); assay: Serotonin 5HT1A radioligand binding assay
[1] = molecular target: Human Cortex or Human recombinant 5-HT2A (Homo sapiens (Human), UniProt P28223); assay: Serotonin 5HT2A radioligand binding assay
Human recombinant D2S = Human recombinant D2S (Homo sapiens (Human), UniProt P14416); assay: Dopamine D2S radioligand binding assay
[2] = tested on: Bleomycin (BLM) induced pulmonary fibrosis; assay: Bleomycin (BLM) induced pulmonary fibrosis rat model; format: in vivo, Sprague Dawley rats
Experimental: Study Animals: The investigation involved 34 male Sprague Dawley rats (weights: 275-300 g; ages: 8 weeks; Charles River Laboratories, Quebec, Canada) randomized for equal distribution according to their body weight into four groups.
Study Methods: On Day 0, animals in Group 1 (Sham; N=5) received one intratracheal administration of the vehicle, 0.250 mL of vehicle 0.9% saline solution (FIG. 1). Animals in Groups 2 to 4 (n=9, 10, 10, respectively) received a single intratracheal instillation of 0.250 mL (5 U/kg-3.33 mg/kg) of bleomycin sulfate (Cayman Chemicals, Ann Arbor, MI) solution. From Day 1 to 10, the vehicle was administered to Groups 1, 2, and 4. […] The vehicle administration was continued to Group 1 (Sham) and Group 2 (BLM) until Day 20. […] During the treatment period, food and water were provided ad libitum to the rats. On each day, animals were monitored for behavior, general health status, and survival. Body weight and food intake were also measured.
For bleomycin, 50 mg of drug was weighed and dissolved in 12.5 mL of sterile 0.9% Saline solution was added to obtain a solution of 4 mg/mL. The vehicle was created by dissolving 50 g of glucose in 1 L of water to result in a 5% solution.
On Day 21, animals were anesthetized and instrumented. Hemodynamic parameters (systemic arterial blood pressure, heart rate, and oxygen saturation) were recorded continuously for at least 5 minutes. At the end of the recording, a blood sample was collected. After the animal was exsanguinated, the pulmonary circulation was flushed with 0.9% NaCl, and tissues (lungs, trachea, and heart) were harvested altogether from the thoracic cavity for further analysis.
Parameters Measured on Surgery Day: Cardiac activity was recorded continuously during the surgical procedure. Cardiac activity was monitored using three electrocardiographic (ECG) contact electrodes placed in a lead-I/II configuration and connected to an IsoDam8 differential amplifier. Heart rate (HR) was recorded using duplicate systems: from the ECG records (RR-intervals) and using an N-595 pulse oximeter attached to the left front paw of the animal. The heart rate values derived from the pulse oximeter were measured in beat per minutes (bpm) using cursor readings in Clampfit 10.2.0.14CA. Blood oxygen saturation (SpO2) was measured using a pulse oximeter signal attached to the left front paw of the animal.
Systemic arterial blood pressure (SAP) was monitored continuously using an intra-arterial fluid-filled catheter connected to a pressure transducer, with diastolic and systolic pressures values measured in mm Hg. Calculation of mean SAP (mSAP) and pulse pressure (PP) used the following formulas: 1−mSAP=diastolic systemic pressure+([systolic systemic pressure−diastolic systemic pressure]/3); and 2−PP=systolic systemic pressure−diastolic systemic pressure. Pulse pressure was calculated as the difference between systolic and diastolic readings.
After being harvested, the trachea was connected to the cannula of a perfusion system. The left lung was clamped while 5 mL of cold PBS solution was injected in the trachea to perform bronchoalveolar lavage to obtain fluid (BALF) of the right lobe of the lungs and was collected for further analysis (Total cell counts and cytokines measurement). Once the BALF sample was collected, it was centrifuged at 1200 rpm for 10 minutes at 4° C. The supernatant was frozen at −80° C. until cytokines analysis. The cells were then resuspended in PBS and counted with a hemocytometer.
Organ weights were expressed as relative percentages and were calculated as follows: Relative organ weight=(organ weight×100)/body weight.
Histological Preparation and Categorization: For each rat, the left lobe of the lungs was harvested, perfused and fixed with 10% neutral buffered formalin. A transversal section of the middle left lobe was cut and forwarded in 10% NBF to the Institute for Research in Immunology and Cancer (Montreal, Quebec, Canada). […]

[3] = RPI: Day 10 to 20, Day 21, vs BLM, P<0.01
[4] = RPI: Day 10 to 20, Day 21, vs BLM, P<0.05
[5] = RPT: Day 1 to 20, Day 21, vs BLM, P<0.001
[6] = RPT: Day 1 to 20, Day 21, vs BLM, P<0.01
[7] = RPT: Day 1 to 20, Day 21, vs BLM, P<0.05
[8] = all groups (RPT and RPI), Day 21

Sequence of Human recombinant D2S (P14416 other isoform, or with tags, fused parts or gaps): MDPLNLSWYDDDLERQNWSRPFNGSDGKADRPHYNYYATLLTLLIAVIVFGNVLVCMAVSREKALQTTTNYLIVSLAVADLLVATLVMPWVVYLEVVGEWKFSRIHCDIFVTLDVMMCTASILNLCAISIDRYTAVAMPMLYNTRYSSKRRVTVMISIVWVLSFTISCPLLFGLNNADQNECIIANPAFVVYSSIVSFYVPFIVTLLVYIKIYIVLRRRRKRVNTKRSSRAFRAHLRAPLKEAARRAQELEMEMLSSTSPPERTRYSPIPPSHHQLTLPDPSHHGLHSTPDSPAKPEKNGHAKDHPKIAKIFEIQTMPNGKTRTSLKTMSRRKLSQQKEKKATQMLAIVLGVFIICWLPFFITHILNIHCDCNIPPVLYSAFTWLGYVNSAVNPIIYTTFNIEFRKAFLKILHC
Sequence of Human Cortex or Human recombinant 5-HT2A (P28223 whole entry, looked up): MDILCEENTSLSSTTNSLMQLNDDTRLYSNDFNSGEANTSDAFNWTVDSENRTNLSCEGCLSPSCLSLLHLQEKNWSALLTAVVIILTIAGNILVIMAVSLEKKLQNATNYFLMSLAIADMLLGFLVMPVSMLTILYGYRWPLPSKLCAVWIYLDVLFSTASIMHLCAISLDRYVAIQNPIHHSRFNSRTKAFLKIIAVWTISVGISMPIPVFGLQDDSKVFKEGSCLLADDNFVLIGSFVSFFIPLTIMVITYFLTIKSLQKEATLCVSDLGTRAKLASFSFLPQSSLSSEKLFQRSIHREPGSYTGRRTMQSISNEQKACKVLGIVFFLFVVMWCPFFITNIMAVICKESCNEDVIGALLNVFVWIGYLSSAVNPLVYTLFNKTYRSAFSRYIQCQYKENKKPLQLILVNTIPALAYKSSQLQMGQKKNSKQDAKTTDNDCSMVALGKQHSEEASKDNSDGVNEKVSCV

**Q.** How did the Ki (Human recombinant 5-HT1A) turn out when “6-(4-(4-(2-methoxyphenyl)piperazin-1-yl)butoxy)-2H-benzo[b][1,4]oxazin-3(-4H)-one [Compound B]” was run?
**A.** 0.65 nM

**Q.** What about the Ki [1] of the same compound?
**A.** 118 nM

**Q.** What about the Ki (Human recombinant D2S) of the same compound?
**A.** 0.3 nM

**Q.** For `O=C1COc2ccc(OCCCCN3CCN(c4cccc(Cl)c4Cl)CC3)cc2N1` [Compound A, 6-(4-(4-(2,3-dichlorophenyl)piperazin-1-yl)butoxy)-2H-benzo[b][1,4]oxazin-3(4H)-one], which “survival rate at Day 10” value ([2]; Group 3, 15 mg/kg b.i.d. gavage from Day 1 (text calls it RPI; Group 3 = RPT)) is on record?
**A.** 100%

**Q.** And the “survival rate at Day 21” value ([2]; RPI: 15 mg/kg b.i.d. gavage Day 10 to 20)?
**A.** 89.5%

**Q.** And the “BALF IL6” value ([2]; RPI: Day 10 to 20, Day 21)?
**A.** numerically (RPT, RPI) reduced

**Q.** And the “BALF MIP1” value ([2]; RPI: Day 10 to 20, Day 21)?
**A.** None of the treatments statistically reversed

**Q.** And the BALF total protein ([2]; RPI: Day 10 to 20, Day 21)?
**A.** numerical improvement reduction

**Q.** And the arterial pulse pressure ([2]; RPI: Day 10 to 20, Day 21)?
**A.** slightly restored

**Q.** And the blood oxygen saturation ([2]; RPI: Day 10 to 20, Day 21)?
**A.** improved

**Q.** And the cardiac output ([2]; RPI: Day 10 to 20, Day 21)?
**A.** slightly restored

**Q.** And the lung weight ([2]; RPI: Day 10 to 20, Day 21)?
**A.** decreased

**Q.** What about the “BALF IP10” value [2, 3] of the same compound?
**A.** significant reductions

**Q.** What about the “BALF RANTES” value [2, 3] of the same compound?
**A.** significantly reduced

**Q.** What about the lung hydroxyproline concentration [2, 3] of the same compound?
**A.** significant diminution

**Q.** And the “BALF MCP1” value [2, 4]?
**A.** significant decrease

**Q.** What about the “BALF total cell count” value [2, 4] of the same compound?
**A.** significantly reduced

**Q.** And the blood lactate levels [2, 4]?
**A.** diminution

**Q.** And the respiratory resistance ([2]; RPI: Day 10 to 20, Day 21, vs BLM, P=0.10)?
**A.** showed improvement

**Q.** What about the “survival rate at Day 21” value ([2]; RPT: 15 mg/kg b.i.d. gavage Day 1 to 20) of the same compound?
**A.** 90%

**Q.** And the “BALF IL6” value ([2]; RPT: Day 1 to 20, Day 21)?
**A.** numerically (RPT, RPI) reduced

**Q.** What about the “BALF MCP1” value ([2]; RPT: Day 1 to 20, Day 21) of the same compound?
**A.** reductions

**Q.** And the “BALF MIP1” value ([2]; RPT: Day 1 to 20, Day 21)?
**A.** slightly reduced

**Q.** And the “Ashcroft Score (H&E staining), lung parenchymal fibrotic changes” value [2, 5]?
**A.** significant reduction

**Q.** What about the “percentage of collagen disposition in the lung (Masson's trichrome staining)” value [2, 5] of the same compound?
**A.** significantly reduced

**Q.** And the “BALF IP10” value [2, 6]?
**A.** significant reductions

**Q.** What about the “BALF RANTES” value [2, 6] of the same compound?
**A.** significantly reduced

**Q.** And the blood lactate levels [2, 6]?
**A.** diminution

**Q.** And the body weight [2, 6]?
**A.** significantly alleviated BLM-induced weight loss

**Q.** What about the cardiac output [2, 6] of the same compound?
**A.** restored cardiac output

**Q.** What about the “BALF total cell count” value [2, 7] of the same compound?
**A.** reversal

**Q.** And the BALF total protein [2, 7]?
**A.** reversal

**Q.** What about the arterial pulse pressure [2, 7] of the same compound?
**A.** improved arterial pulse pressure

**Q.** What about the blood oxygen saturation [2, 7] of the same compound?
**A.** normalization

**Q.** What about the lung hydroxyproline concentration [2, 7] of the same compound?
**A.** significant diminution

**Q.** What about the lung weight [2, 7] of the same compound?
**A.** significantly lower

**Q.** And the respiratory resistance [2, 7]?
**A.** significant reduction

**Q.** And the body weight ([2]; administered from Day 10 (RPI; printed RPT), Day 21, vs BLM)?
**A.** slightly increased body weight

**Q.** And the heart rate [2, 8]?
**A.** relatively similar in all groups

**Q.** What about the systemic arterial pressure [2, 8] of the same compound?
**A.** no differences were noted among the groups
